pIC50: −log10 of the molar value.
Test system: 958667-338-R-J2-PDC tumor spheroids viability
Test: Anticancer human tumor 958667-338-R-J2-PDC patient-derived colon adenocarcinoma cell line growth inhibition [PI3K]
Conditions: spheroids with HUVEC and MSC; for pIC50: curve of first compound; for viability, T/C: stronger effect = lower value
Outline: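 Complex 3D spheroids (cancer cells + endothelial HUVEC + mesenchymal stem cells); drug pairs of targeted agent x inavolisib/alpelisib/duvelisib/copanlisib; half-log series from ~Cmax, max 10 microM if Cmax unknown; endpoint viability.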

[1] = second compound 0.00316 µM, first compound 0.0316 µM
[2] = second compound 0.00316 µM, first compound 0.1 µM
[3] = second compound 0.01 µM, first compound 0.0316 µM
[4] = second compound 0.01 µM, first compound 0.1 µM
[5] = second compound 0.0316 µM, first compound 0.0316 µM
[6] = second compound 0.0316 µM, first compound 0.1 µM
[7] = second compound 0.1 µM, first compound 0.0316 µM
[8] = second compound 0.1 µM, first compound 0.1 µM
[9] = second compound 0.316 µM, first compound 0.0316 µM
[10] = second compound 0.316 µM, first compound 0.1 µM
[11] = second compound 1 µM, first compound 0.0316 µM
[12] = second compound 1 µM, first compound 0.1 µM
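Also: spheroids exposed to compounds for seven days before readout.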

SMILES: CC(C)n1nc(-c2ccc3oc(N)nc3c2)c2c(N)ncnc21 + COc1c(OCCCN2CCOCC2)ccc2c3n(c(=NC(=O)c4cnc(N)nc4)nc12)CCN3
- pIC50 (second compound 0.00316 µM): 7.11
- pIC50 (second compound 0.01 µM): 7.22
- pIC50 (second compound 0.0316 µM): 7.64
- pIC50 (second compound 0.1 µM): 8.01
- pIC50 (second compound 0.316 µM): > 9.50
- pIC50 (second compound 1 µM): > 9.50
- viability, T/C (second compound 0.00316 µM, first compound 0.000316 µM): 88.1%
- viability, T/C (second compound 0.00316 µM, first compound 0.001 µM): 112%
- viability, T/C (second compound 0.00316 µM, first compound 0.00316 µM): 99.2%
- viability, T/C (second compound 0.00316 µM, first compound 0.01 µM): 103%
- viability, T/C [1]: 77.4%
- viability, T/C [2]: 42.4%
- viability, T/C (second compound 0.01 µM, first compound 0.000316 µM): 73.6%
- viability, T/C (second compound 0.01 µM, first compound 0.001 µM): 70%
- viability, T/C (second compound 0.01 µM, first compound 0.00316 µM): 85.2%
- viability, T/C (second compound 0.01 µM, first compound 0.01 µM): 71.6%
- viability, T/C [3]: 74.7%
- viability, T/C [4]: 31.3%
- viability, T/C (second compound 0.0316 µM, first compound 0.000316 µM): 69.6%
- viability, T/C (second compound 0.0316 µM, first compound 0.001 µM): 74.5%
- viability, T/C (second compound 0.0316 µM, first compound 0.00316 µM): 70%
- viability, T/C (second compound 0.0316 µM, first compound 0.01 µM): 58.1%
- viability, T/C [5]: 47%
- viability, T/C [6]: 25.2%
- viability, T/C (second compound 0.1 µM, first compound 0.000316 µM): 67.3%
- viability, T/C (second compound 0.1 µM, first compound 0.001 µM): 66.1%
- viability, T/C (second compound 0.1 µM, first compound 0.00316 µM): 62%
- viability, T/C (second compound 0.1 µM, first compound 0.01 µM): 44.2%
- viability, T/C [7]: 41%
- viability, T/C [8]: 21.3%
- viability, T/C (second compound 0.316 µM, first compound 0.000316 µM): 41.4%
- viability, T/C (second compound 0.316 µM, first compound 0.001 µM): 37%
- viability, T/C (second compound 0.316 µM, first compound 0.00316 µM): 34.7%
- viability, T/C (second compound 0.316 µM, first compound 0.01 µM): 33.1%
- viability, T/C [9]: 25.1%
- viability, T/C [10]: 14.7%
- viability, T/C (second compound 1 µM, first compound 0.000316 µM): 17.2%
- viability, T/C (second compound 1 µM, first compound 0.001 µM): 16.5%
- viability, T/C (second compound 1 µM, first compound 0.00316 µM): 13.6%
- viability, T/C (second compound 1 µM, first compound 0.01 µM): 17.5%
- viability, T/C [11]: 15.8%
- viability, T/C [12]: 11.5%

SMILES: CCCS(=O)(=O)Nc1ccc(F)c(C(=O)c2c[nH]c3ncc(-c4ccc(Cl)cc4)cc23)c1F + COc1c(OCCCN2CCOCC2)ccc2c3n(c(=NC(=O)c4cnc(N)nc4)nc12)CCN3
- pIC50 (second compound 0.00316 µM): 5.23
- pIC50 (second compound 0.01 µM): 5.22
- pIC50 (second compound 0.0316 µM): 5.30
- pIC50 (second compound 0.1 µM): 5.39
- pIC50 (second compound 0.316 µM): > 7.50
- pIC50 (second compound 1 µM): > 7.50
- viability, T/C [1]: 126%
- viability, T/C [2]: 93.4%
- viability, T/C (second compound 0.00316 µM, first compound 0.316 µM): 94.4%
- viability, T/C (second compound 0.00316 µM, first compound 1 µM): 109%
- viability, T/C (second compound 0.00316 µM, first compound 3.16 µM): 99.5%
- viability, T/C (second compound 0.00316 µM, first compound 10 µM): 7.46%
- viability, T/C [3]: 89.1%
- viability, T/C [4]: 93.7%
- viability, T/C (second compound 0.01 µM, first compound 0.316 µM): 111%
- viability, T/C (second compound 0.01 µM, first compound 1 µM): 84.8%
- viability, T/C (second compound 0.01 µM, first compound 3.16 µM): 110%
- viability, T/C (second compound 0.01 µM, first compound 10 µM): 12.4%
- viability, T/C [5]: 63%
- viability, T/C [6]: 67.5%
- viability, T/C (second compound 0.0316 µM, first compound 0.316 µM): 74.5%
- viability, T/C (second compound 0.0316 µM, first compound 1 µM): 74.5%
- viability, T/C (second compound 0.0316 µM, first compound 3.16 µM): 103%
- viability, T/C (second compound 0.0316 µM, first compound 10 µM): 8.73%
- viability, T/C [7]: 67.4%
- viability, T/C [8]: 52.2%
- viability, T/C (second compound 0.1 µM, first compound 0.316 µM): 61.7%
- viability, T/C (second compound 0.1 µM, first compound 1 µM): 61.8%
- viability, T/C (second compound 0.1 µM, first compound 3.16 µM): 63.2%
- viability, T/C (second compound 0.1 µM, first compound 10 µM): 10.3%
- viability, T/C [9]: 31.6%
- viability, T/C [10]: 49.6%
- viability, T/C (second compound 0.316 µM, first compound 0.316 µM): 38.3%
- viability, T/C (second compound 0.316 µM, first compound 1 µM): 32.2%
- viability, T/C (second compound 0.316 µM, first compound 3.16 µM): 37.5%
- viability, T/C (second compound 0.316 µM, first compound 10 µM): 6.35%
- viability, T/C [11]: 19%
- viability, T/C [12]: 23.5%
- viability, T/C (second compound 1 µM, first compound 0.316 µM): 16.7%
- viability, T/C (second compound 1 µM, first compound 1 µM): 20.8%
- viability, T/C (second compound 1 µM, first compound 3.16 µM): 19.2%
- viability, T/C (second compound 1 µM, first compound 10 µM): 5.1%
